From patent US6472348B1, “Pyridone derivatives and herbicides” (Kumiai Chemical Industry Co., Ltd., priority 1996, dated 2002)

How the values were obtained:
[1] = test system: pale smartweed (Po); experiment: Test Example 3: herbicidal effects by upland field foliage treatment; type: in vivo; set-up: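 grade of growth control; 5 = at least 90%; 4 = 70 to 90%; 3 = 50 to 70%; 2 = 30 to 50%; 1 = 10 to 30%; 0 = under 10%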
Outline: (§1)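 Scoring used a standard effect scale on the 14th day post-treatment, with plants held in a greenhouse throughout. Foliar application was made to weeds raised from seed in sand-filled pots for 2 weeks.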

[2] = test system: slender amaranth (Am); experiment: as above; type: in vivo; set-up: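 grade of growth control; 5 = at least 90%; 4 = 70 to 90%; 3 = 50 to 70%; 2 = 30 to 50%; 1 = 10 to 30%; 0 = under 10%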
Outline: as §1

[3] = test system: common lambsquarters (Ch); experiment: as above; type: in vivo; set-up: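 grade of growth control; 5 = at least 90%; 4 = 70 to 90%; 3 = 50 to 70%; 2 = 30 to 50%; 1 = 10 to 30%; 0 = under 10%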
Outline: as §1

[4] = test system: rice flatsedge (Ci); experiment: as above; type: in vivo; set-up: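 grade of growth control; 5 = at least 90%; 4 = 70 to 90%; 3 = 50 to 70%; 2 = 30 to 50%; 1 = 10 to 30%; 0 = under 10%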
Outline: as §1

[5] = test system: barnyardgrass (Ec); experiment: as above; type: in vivo; set-up: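 grade of growth control; 5 = at least 90%; 4 = 70 to 90%; 3 = 50 to 70%; 2 = 30 to 50%; 1 = 10 to 30%; 0 = under 10%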
Outline: as §1

[6] = test system: Diaitaria ciliaris (Di); experiment: as above; type: in vivo; set-up: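 grade of growth control; 5 = at least 90%; 4 = 70 to 90%; 3 = 50 to 70%; 2 = 30 to 50%; 1 = 10 to 30%; 0 = under 10%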
Outline: as §1

[7] = test system: bulrush (Sc); experiment: Test Example 1: herbicidal effects by paddy field soil treatment; type: in vivo; conditions: 100 g of the active ingredient per 10 ares, 21st day after the application, index 0-5 of Table 47;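 note: grade of growth control; 5 = at least 90%; 4 = 70 to 90%; 3 = 50 to 70%; 2 = 30 to 50%; 1 = 10 to 30%; 0 = under 10%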
Outline: (§2)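 Flooded paddy-soil pots (3 cm water) sown after puddling/leveling; treatment 100 g a.i./10 ares; greenhouse culture; herbicidal effect rated visually on a scoring scale at 21 d post-application.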

[8] = test system: monochoria (Mo); experiment: as above; type: in vivo; conditions: 100 g of the active ingredient per 10 ares, 21st day after the application, index 0-5 of Table 47;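 note: grade of growth control; 5 = at least 90%; 4 = 70 to 90%; 3 = 50 to 70%; 2 = 30 to 50%; 1 = 10 to 30%; 0 = under 10%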
Outline: as §2

[9] = test system: barnyardgrass (Ec); experiment: as above; type: in vivo; conditions: 100 g of the active ingredient per 10 ares, 21st day after the application, index 0-5 of Table 47
Outline: as §2

[10] = test system: Digitaria ciliaris (Di); experiment: Test Example 2: herbicidal effects by upland field soil treatment; type: in vivo; conditions: 100 g of the active ingredient per 10 ares;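 note: grade of growth control; 5 = at least 90%; 4 = 70 to 90%; 3 = 50 to 70%; 2 = 30 to 50%; 1 = 10 to 30%; 0 = under 10%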
Description: (§3) (Test on Herbicidal Effects by Upland Field Soil Treatment)

[11] = test system: pale smartweed (Po); experiment: as above; type: in vivo; conditions: 100 g of the active ingredient per 10 ares
Description: as §3

[12] = test system: slender amaranth (Am); experiment: as above; type: in vivo; conditions: 100 g of the active ingredient per 10 ares
Description: as §3

[13] = test system: common lambsquarters (Ch); experiment: as above; type: in vivo; conditions: 100 g of the active ingredient per 10 ares
Description: as §3

[14] = test system: rice flatsedge (Ci); experiment: as above; type: in vivo; conditions: 100 g of the active ingredient per 10 ares
Description: as §3

[15] = test system: barnyardgrass (Ec); experiment: as above; type: in vivo; conditions: 100 g of the active ingredient per 10 ares
Description: as §3

[16] = 100 g of the active ingredient per 10 ares, evaluated on the 14th day after treatment
[17] = 21st day after the application, index 0-5 of Table 47
[18] = 100 g active ingredient per 10 ares, evaluated 14th day after treatment
[19] = evaluated on the 21st day after application

| Structure (SMILES) | melting point [°C] | Herbicidal effects Sc [7] | Herbicidal effects Mo [8] | Herbicidal effects Ec [9] | Herbicidal effects Po [1, 18] | Herbicidal effects Am [2, 18] | Herbicidal effects Ch [3, 18] | Herbicidal effects Ci [4, 18] | Herbicidal effects Ec [5, 18] | Herbicidal effects Di [6, 18] | Herbicidal effects Di [10, 19] | Herbicidal effects Po [11, 19] | Herbicidal effects Am [12, 19] | Herbicidal effects Ch [13, 19] | Herbicidal effects Ci [14, 19] | Herbicidal effects Ec [15, 19] | other results |
| --- | --- | --- | --- | --- | --- | --- | --- | --- | --- | --- | --- | --- | --- | --- | --- | --- | --- |
| Cn1c(C(F)(F)F)ccc(-c2cc(CBr)c(Cl)cc2F)c1=O [Compound No. 1-82, 3-(4-chloro-2-fluoro-5-bromomethylphenyl)-1-methyl-6-trifluoromethyl-2(1H)-pyridone] | 117 to 118 | 5 | 5 | 5 |  |  |  |  |  |  |  |  |  |  |  |  | Herbicidal effects Po [1, 16]: 5; Herbicidal effects Am [2, 16]: 5; Herbicidal effects Ch [3, 16]: 5; Herbicidal effects Ci [4, 16]: 5; Herbicidal effects Ec [5, 16]: 4; Herbicidal effects Di [6, 16]: 5; Herbicidal effects Di [10, 17]: 5; Herbicidal effects Po [11, 17]: 5; Herbicidal effects Am [12, 17]: 5; Herbicidal effects Ch [13, 17]: 5; Herbicidal effects Ci [14, 17]: 5; Herbicidal effects Ec [15, 17]: 4 |
| CCCC(O)c1cc(-c2ccc(C(F)(F)F)n(C)c2=O)c(F)cc1Cl (stereo not shown) [Compound No. 1-193, 3-[4-chloro-2-fluoro-5-(1-hydroxybutyl)phenyl]-1-methyl-6-trifluoromethyl-2(1H)-pyridone] | 120 to 122 | 5 | 5 | 5 | 5 | 5 | 5 | 5 | 5 | 5 | 5 | 5 | 5 | 5 | 5 | 5 |  |
| Cc1cc2c(Cl)cc(F)c(-c3ccc(C(F)(F)F)n(C)c3=O)c2o1 [Compound No. 5-1, 3-(4-chloro-6-fluoro-2-methylbenzofuran-7-yl)-1-methyl-6-trifluoromethyl-2 (1H)-pyridone] | 138 to 140 | 5 | 5 | 5 | 5 | 5 | 5 | 5 | 5 | 5 | 5 | 5 | 5 | 5 | 5 | 5 |  |
| CC(C)Oc1cc(-c2cn(C)c(C(F)(F)F)cc2=O)c(F)cc1Cl [Compound No. 6-7, 5-(4-chloro-2-fluoro-5-isopropoxyphenyl)-1-methyl-2-trifluoromethyl-4(1H)-pyridone] | 150 to 151 | 5 | 5 | 5 | 5 | 5 | 5 | 5 | 5 | 5 | 5 | 5 | 5 | 5 | 5 | 5 |  |
